Laboratory results from patent publication US6653064B1, “Method for identifying compounds useful in the therapy of bone disorders” (Boehringer Ingelheim International GmbH, priority 1999, dated 2003).

How the values were obtained:
endogenous fra-1 = assay: RT-PCR analysis of fra-1 transcripts in primary osteoblast cultures; format: cell-based, mice; settings: wild-type osteoblasts, cultures 7 days after plating, not expressed without stimulation
Protocol: To further investigate the consequences of Fra-1 expression on osteoblasts, primary osteoblasts were prepared from the calvariae of neonatal (6-8 days old) mice and differentiated in vitro. Calvariae were sequentially digested for 10 minutes in α-MEM containing 0.1% collagenase and 0.2% dispase. Cells isolated by fractions 2 to 5 were combined as an osteoblastic cell population, expanded for 2 days in α-MEM with 10% FCS and replated at a density of 10^4 cells per cm^2. After reaching confluency, medium was supplemented with 5 mM β-glycerophosphate and 100 μg/ml ascorbic acid. There was no difference in the proliferation between wild-type and transgenic osteoblasts. The time course of differentiation was followed by ALP activity and by the deposition of mineralized extracelluar matrix. For ALP activity measurement, cells were washed with PBS and sonicated in 10 mM Tris-HCl buffer (pH 8.0). ALP activity in the lysate was measured using a calorimetric assay (Sigma). […] In transgenic cultures, areas of mineralized extracellular matrix monitored by alizarine red S staining were first observed at day 12, when no stained areas were present in wild-type cultures (FIG. 5b). […]
5′-GTACCGAGACTACGGGGAACCGG-3′ SEQ. […] Exogenous and endogenous fra-1 was detected in transgenic osteoblasts, irrespective of induction by phorbol myristate acetate (PMA) (FIG. 5c). […]

Fra-1 expression = settings: substance known to induce Fra-1 expression (Yoshioka et al., 1995); cited from earlier work

Structure (SMILES) | expression of endogenous fra-1 upon stimulation (endogenous fra-1) | Fra-1 expression in cultured cells (Fra-1 expression)
CCCCCCCCCCCCCC(=O)O[C@@H]1[C@@H](C)[C@@]2(O)[C@@H](C=C(CO)C[C@]3(O)C(=O)C(C)=C[C@@H]23)[C@@H]2C(C)(C)[C@]12OC(C)=O [PMA, phorbol myristate acetate] | induced | 
CC(C)(C)c1cc(O)ccc1O [tert-butylhydroquinone] |  | induce Fra-1 expression
